Activity calls are given as the source filed them. No cut-off for these calls is given here.
How the values were obtained:
[1] = target: T1, Tryptophan 5-hydroxylase 1 (Homo sapiens, UniProt P17752)
T1 sequence (P17752 whole entry): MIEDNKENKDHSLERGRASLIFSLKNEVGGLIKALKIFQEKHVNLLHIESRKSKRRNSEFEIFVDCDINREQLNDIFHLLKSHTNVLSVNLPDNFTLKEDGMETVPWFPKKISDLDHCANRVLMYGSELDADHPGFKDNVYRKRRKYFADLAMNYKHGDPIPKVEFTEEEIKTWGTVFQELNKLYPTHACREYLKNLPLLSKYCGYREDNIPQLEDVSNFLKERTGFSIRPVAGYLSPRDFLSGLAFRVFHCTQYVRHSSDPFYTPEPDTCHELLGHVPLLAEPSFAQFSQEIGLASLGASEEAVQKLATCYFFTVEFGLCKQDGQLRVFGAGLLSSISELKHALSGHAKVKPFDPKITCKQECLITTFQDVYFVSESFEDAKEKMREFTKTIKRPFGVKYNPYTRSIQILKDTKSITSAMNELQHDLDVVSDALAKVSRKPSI
Description: Inhibition of TPH1 (unknown origin)

Mus musculus [2] = assay: In vivo inhibition of TPH1 in mouse assessed as reduction in 5-HT level in intestinal mucosa at 50 mg/kg, po administered daily as single dose relative to control; format: functional
Mus musculus [3] = assay: Drug level in mouse treated with (S)-ethyl 8-(2-amino-6-((R)-1-(5-chloro-3'-methylbiphenyl-2-yl)-2,2,2-trifluoroethoxy)pyrimidin-4-yl)-2,8-diazaspiro[4.5]decane-3-carboxylate at 10 to 50 mg/kg, po administered as single dose; format: ADME, organism-based; settings: in vivo
Mus musculus [4] = assay: Drug level in mouse treated (S)-ethyl 8-(2-amino-6-((R)-1-(5-chloro-3'-fluorobiphenyl-2-yl)-2,2,2-trifluoroethoxy)pyrimidin-4-yl)-2,8-diazaspiro[4.5]decane-3-carboxylate at 10 to 50 mg/kg, po administered as single dose; format: ADME, organism-based; settings: in vivo
Mus musculus [5] = assay: Drug level in mouse treated with (S)-ethyl 8-(2-amino-6-((R)-1-(3'-tert-butyl-5-chlorobiphenyl-2-yl)-2,2,2-trifluoroethoxy)pyrimidin-4-yl)-2,8-diazaspiro[4.5]decane-3-carboxylate at 10 to 50 mg/kg, po administered as single dose; format: ADME, organism-based; settings: in vivo
[6] = Drug level in rat hepatocytes treated with ethyl 8-(2-amino-6-((R)-1-(4-chloro-2-(3-methyl-1H-pyrazol-1-yl)phenyl)-2,2,2-trifluoroethoxy)pyrimidin-4-yl)-2,8-diazaspiro[4.5]decane-3-carboxylate; format: ADME, cell-based, Hepatocyte

Row | SMILES | IC50 [1] | inhibition (Mus musculus [2]) | further results
1 | Cc1cccc(-c2cc(Cl)ccc2[C@@H](Oc2cc(N3CCC4(CC3)CN[C@H](C(=O)O)C4)nc(N)n2)C(F)(F)F)c1 | 26 nM |  | Drug metabolism (Mus musculus [3]): Metabolite_Detected
2 | Nc1nc(O[C@H](c2ccc(Cl)cc2-c2cccc(F)c2)C(F)(F)F)cc(N2CCC3(CC2)CN[C@H](C(=O)O)C3)n1 | 32 nM |  | Drug metabolism (Mus musculus [4]): Metabolite_Detected
3 | CCOC(=O)[C@@H]1CC2(CCN(c3cc(O[C@H](c4ccc(-c5ccc6nc(SC)ccc6c5)cc4)C(F)(F)F)nc(N)n3)CC2)CN1 |  | inactive | 
4 | CCOC(=O)[C@@H]1CC2(CCN(c3cc(O[C@H](c4ccc(-c5ccc6c(C)n(C)nc6c5)cc4)C(F)(F)F)nc(N)n3)CC2)CN1 |  | inactive | 
5 | CS(=O)(=O)Nc1cccc(-c2cc(Cl)ccc2[C@@H](Oc2cc(N3CCC4(CC3)CN[C@H](C(=O)O)C4)nc(N)n2)C(F)(F)F)c1 | 51 nM |  | 
6 | CCOC(=O)[C@@H]1CC2(CCN(c3cc(O[C@H](c4ccc(Cl)cc4)C(F)(F)F)nc(N)n3)CC2)CN1 |  | inactive | 
7 | CC(C)(C)c1cccc(-c2cc(Cl)ccc2[C@@H](Oc2cc(N3CCC4(CC3)CN[C@H](C(=O)O)C4)nc(N)n2)C(F)(F)F)c1 | 23 nM |  | Drug metabolism (Mus musculus [5]): Metabolite_Detected
8 | CS(=O)(=O)c1ccc(-c2cc(Cl)ccc2[C@@H](Oc2cc(N3CCC4(CC3)CN[C@H](C(=O)O)C4)nc(N)n2)C(F)(F)F)cc1 | 885 nM |  | 
9 | CCOC(=O)[C@@H]1CC2(CCN(c3cc(O[C@H](c4ccc(Cl)cc4-n4ccc(C)n4)C(F)(F)F)nc(N)n3)CC2)CN1 |  |  | inhibition in vivo at 50 mg/kg (Mus musculus [2]): 61%
10 | Nc1nc(O[C@H](c2ccc(Cl)cc2-n2ccc(C(=O)O)n2)C(F)(F)F)cc(N2CCC3(CC2)CNC(C(=O)O)C3)n1 (stereo not given in full) |  |  | Drug metabolism [6]: Metabolite_Detected
11 | CN(C)S(=O)(=O)c1cccc(-c2cc(Cl)ccc2[C@@H](Oc2cc(N3CCC4(CC3)CN[C@H](C(=O)O)C4)nc(N)n2)C(F)(F)F)c1 | 53 nM |  | 
12 | CCOC(=O)[C@@H]1CC2(CCN(c3cc(O[C@H](c4ccc(-c5ccc6ncc(F)cc6c5)cc4)C(F)(F)F)nc(N)n3)CC2)CN1 |  | inactive | 
13 | CCOC(=O)[C@@H]1CC2(CCN(c3cc(O[C@H](c4ccc(-c5ccc6c(c5)CCC(=O)N6)cc4)C(F)(F)F)nc(N)n3)CC2)CN1 |  | inactive | 
14 | Nc1nc(O[C@H](c2ccc(Cl)cc2-c2cc(F)cc(Cl)c2)C(F)(F)F)cc(N2CCC3(CC2)CN[C@H](C(=O)O)C3)n1 | 35 nM |  | 
15 | CCOC(=O)[C@@H]1CC2(CCN(c3cc(O[C@H](c4ccc(-c5ccc6c(c5)CCN(C)C6=O)cc4)C(F)(F)F)nc(N)n3)CC2)CN1 |  | inactive | 
16 | Cc1cc(-c2cc(Cl)ccc2[C@@H](Oc2cc(N3CCC4(CC3)CN[C@H](C(=O)O)C4)nc(N)n2)C(F)(F)F)ccc1Cl | 62 nM |  | 
17 | CCOC(=O)[C@@H]1CC2(CCN(c3cc(O[C@H](c4ccc(-c5ccc6cnccc6c5)cc4)C(F)(F)F)nc(N)n3)CC2)CN1 |  | inactive | 

Row | SMILES | IC50 [1] | inhibition (Mus musculus [2]) | further results
18 | Nc1nc(O[C@H](c2ccc(Cl)cc2-n2ccc(COS(=O)(=O)O)n2)C(F)(F)F)cc(N2CCC3(CC2)CNC(C(=O)O)C3)n1 (stereo not given in full) |  |  | Drug metabolism [6]: Metabolite_Detected
19 | Nc1nc(O[C@H](c2ccc(Cl)cc2-c2ccc(F)c(F)c2)C(F)(F)F)cc(N2CCC3(CC2)CN[C@H](C(=O)O)C3)n1 | 35 nM |  | 
20 | Nc1nc(O[C@H](c2ccc(Cl)cc2-c2cccc(Cl)c2)C(F)(F)F)cc(N2CCC3(CC2)CN[C@H](C(=O)O)C3)n1 | 30 nM |  | 
21 | CCOC(=O)[C@@H]1CC2(CCN(c3cc(O[C@H](c4ccc(-c5ccc6[nH]ncc6c5)cc4)C(F)(F)F)nc(N)n3)CC2)CN1 |  | inactive | 
22 | Nc1nc(O[C@H](c2ccc(Cl)cc2-c2cccc(N3CCCC3=O)c2)C(F)(F)F)cc(N2CCC3(CC2)CN[C@H](C(=O)O)C3)n1 | 77 nM |  | 
23 | CCOC(=O)[C@@H]1CC2(CCN(c3cc(O[C@H](c4ccc(-c5ccc(Cl)c(Cl)c5)cc4-n4ccc(C)n4)C(F)(F)F)nc(N)n3)CC2)CN1 |  |  | inhibition in vivo at 50 mg/kg (Mus musculus [2]): 60%
24 | CCOc1ccc(-c2cc(Cl)ccc2[C@@H](Oc2cc(N3CCC4(CC3)CN[C@H](C(=O)O)C4)nc(N)n2)C(F)(F)F)cc1Cl | 207 nM |  | 
25 | Cc1cccc(-c2cc(Cl)ccc2[C@@H](Oc2cc(N3CCC4(CC3)CN[C@H](C(=O)O)C4)nc(N)n2)C(F)(F)F)n1 | 73 nM |  | 
26 | Cc1ccn(-c2cc(-c3ccc(C)c(C)c3)ccc2[C@@H](Oc2cc(N3CCC4(CC3)CN[C@H](C(=O)O)C4)nc(N)n2)C(F)(F)F)n1 | 20 nM |  | 
27 | N#Cc1cccc(-c2cc(Cl)ccc2[C@@H](Oc2cc(N3CCC4(CC3)CN[C@H](C(=O)O)C4)nc(N)n2)C(F)(F)F)c1 | 30 nM |  | 
28 | CCOC(=O)[C@@H]1CC2(CCN(c3cc(O[C@H](c4ccc(-c5ccc6c(cnn6C)c5)cc4)C(F)(F)F)nc(N)n3)CC2)CN1 |  | inactive | 
29 | NC(=O)c1cccc(-c2cc(Cl)ccc2[C@@H](Oc2cc(N3CCC4(CC3)CN[C@H](C(=O)O)C4)nc(N)n2)C(F)(F)F)c1 | 40 nM |  | 
30 | Nc1nc(O[C@H](c2ccc(Cl)cc2-c2cccnc2)C(F)(F)F)cc(N2CCC3(CC2)CN[C@H](C(=O)O)C3)n1 | 65 nM |  | 
31 | CCOC(=O)[C@@H]1CC2(CCN(c3cc(O[C@H](c4ccc(-c5ccc6c(C)nn(C)c6c5)cc4)C(F)(F)F)nc(N)n3)CC2)CN1 |  | inactive | 
32 | CCOC(=O)[C@@H]1CC2(CCN(c3cc(O[C@H](c4ccc(-c5ccc(OC)cc5)cc4-n4ccc(C)n4)C(F)(F)F)nc(N)n3)CC2)CN1 |  |  | inhibition in vivo at 50 mg/kg (Mus musculus [2]): 46%
33 | Nc1nc(O[C@H](c2ccc(Cl)cc2-n2ccc(CO)n2)C(F)(F)F)cc(N2CCC3(CC2)CNC(C(=O)O)C3)n1 (stereo not given in full) |  |  | Drug metabolism [6]: Metabolite_Detected

Further lines, with some results ahead:

Row | IC50 [1] | SMILES | inhibition (Mus musculus [2]) | further results
34 | 37 nM | Cc1c2ccc(-c3ccc([C@@H](Oc4cc(N5CCC6(CC5)CN[C@H](C(=O)O)C6)nc(N)n4)C(F)(F)F)cc3)cc2nn1C | inactive | 
35 | 26 nM | CSc1ccc2cc(-c3ccc([C@@H](Oc4cc(N5CCC6(CC5)CN[C@H](C(=O)O)C6)nc(N)n4)C(F)(F)F)cc3)ccc2n1 | inactive | 
36 | 32 nM | Cc1nn(C)c2cc(-c3ccc([C@@H](Oc4cc(N5CCC6(CC5)CN[C@H](C(=O)O)C6)nc(N)n4)C(F)(F)F)cc3)ccc12 | inactive | 
37 | 23 nM | COc1ccc(-c2ccc([C@@H](Oc3cc(N4CCC5(CC4)CN[C@H](C(=O)O)C5)nc(N)n3)C(F)(F)F)c(-n3ccc(C)n3)c2)cc1 |  | 
38 | 25 nM | Nc1nc(O[C@H](c2ccc(-c3ccc4cnccc4c3)cc2)C(F)(F)F)cc(N2CCC3(CC2)CN[C@H](C(=O)O)C3)n1 | inactive | 
39 | 40 nM | Nc1nc(O[C@H](c2ccc(-c3ccc4ncc(F)cc4c3)cc2)C(F)(F)F)cc(N2CCC3(CC2)CN[C@H](C(=O)O)C3)n1 | inactive | 
40 | 28 nM | Nc1nc(O[C@H](c2ccc(-c3ccc4c(c3)CCC(=O)N4)cc2)C(F)(F)F)cc(N2CCC3(CC2)CN[C@H](C(=O)O)C3)n1 | inactive | 
41 | 460 nM | Nc1nc(O[C@H](c2ccc(Cl)cc2)C(F)(F)F)cc(N2CCC3(CC2)CN[C@H](C(=O)O)C3)n1 | inactive | 
42 | 53 nM | Nc1nc(O[C@H](c2ccc(Cl)cc2-c2ccc(Cl)cc2)C(F)(F)F)cc(N2CCC3(CC2)CN[C@H](C(=O)O)C3)n1 |  | 
43 | 22 nM | Cc1ccn(-c2cc(-c3ccc(Cl)c(Cl)c3)ccc2[C@@H](Oc2cc(N3CCC4(CC3)CN[C@H](C(=O)O)C4)nc(N)n2)C(F)(F)F)n1 |  | 
44 | 39 nM | CN1CCc2cc(-c3ccc([C@@H](Oc4cc(N5CCC6(CC5)CN[C@H](C(=O)O)C6)nc(N)n4)C(F)(F)F)cc3)ccc2C1=O | inactive | 
45 | 30 nM | Cn1ncc2cc(-c3ccc([C@@H](Oc4cc(N5CCC6(CC5)CN[C@H](C(=O)O)C6)nc(N)n4)C(F)(F)F)cc3)ccc21 | inactive | 
46 | 1130 nM | Nc1nc(O[C@H](c2ccc(Cl)cc2-c2ccc(S(N)(=O)=O)cc2)C(F)(F)F)cc(N2CCC3(CC2)CN[C@H](C(=O)O)C3)n1 |  | 
47 | 32 nM | Nc1nc(O[C@H](c2ccc(-c3ccc4[nH]ncc4c3)cc2)C(F)(F)F)cc(N2CCC3(CC2)CN[C@H](C(=O)O)C3)n1 | inactive | 

Reference: ChEMBL document CHEMBL4000220, “Optimization of spirocyclic proline tryptophan hydroxylase-1 inhibitors” (Bioorg Med Chem Lett, 2017)
